The source of these data is ChEMBL document CHEMBL6134840 (J Med Chem, 2025).

Data set [1] is described as follows: Stability in mouse liver microsome. The format is ADME. To be noted: microsomes. A general note: Liver microsomes are vesicles of endoplasmic reticulum, rich in cytochrome P450 enzymes.
A short description of data set [2]: Permeability across apical to basal side in human Caco-2 cells. The format is ADME, cell-based.

For the compound `O=S(=O)(Nc1ccc2ccccc2n1)c1ccccc1`, in data set [1], the Stability result is “Stable”. The permeability entry in data set [2] is “Permeable”.
